According to BindingDB's records for patent US117808 (Pfizer, 2023):

Biological target: Protein kinase C beta type Isoform 2 (Homo sapiens, UniProt P05771)
Experiment: Protein Kinase C beta 2 (PKCpII) Assay
Description: Protein Kinase C beta 2 (PKCpII) catalyzes the production of ADP from ATP that accompanies the phosphoryl transfer to the PKC Pseudosubstrate peptide (A→S, RFARKGSLRQKNV). This transfer is coupled to the oxidation of β-NADH through the activities of Pyruvate Kinase (PK) and Lactate Dehydrogenase (LDH). β-NADH conversion to NAD+ is monitored by the decrease in absorbance at 340 nm (e=6.22 cm−1 mM−1) using a Molecular Devices SPECTRA max PLUS spectrophotometer.A typical assay was carried out on a 96-well, clear microtiter plate in a Molecular Devices spectrophotometer for 20 minutes at 30° C. in 0.1 mL of assay buffer containing 50 mM HEPES, pH 7.4, 5 nM PKC, 23 units of pyruvate kinase, 33 units of lactate dehydrogenase, 0.15 mM peptide, 0.1 mM ATP, 1 mM DTT, 4 mM PEP, 8 mM MgCl2, 0.3 mM NADH, […]), 10 mg/mL PS, 50 ng/mL PMA, 7.5% DMSO and from about 10,000 nM to 0.169 nM compound inhibitor. Stock solutions of 3-sn-phosphatidyl-L-serine (PS) and phorbol-12-myristate-13-acetate (PMA) were sonicated for 30 seconds just prior to addition to assay buffer and assays were initiated by the addition of 100 μM ATP.

Chain of Protein kinase C beta type Isoform 2 (P05771 as listed by the source): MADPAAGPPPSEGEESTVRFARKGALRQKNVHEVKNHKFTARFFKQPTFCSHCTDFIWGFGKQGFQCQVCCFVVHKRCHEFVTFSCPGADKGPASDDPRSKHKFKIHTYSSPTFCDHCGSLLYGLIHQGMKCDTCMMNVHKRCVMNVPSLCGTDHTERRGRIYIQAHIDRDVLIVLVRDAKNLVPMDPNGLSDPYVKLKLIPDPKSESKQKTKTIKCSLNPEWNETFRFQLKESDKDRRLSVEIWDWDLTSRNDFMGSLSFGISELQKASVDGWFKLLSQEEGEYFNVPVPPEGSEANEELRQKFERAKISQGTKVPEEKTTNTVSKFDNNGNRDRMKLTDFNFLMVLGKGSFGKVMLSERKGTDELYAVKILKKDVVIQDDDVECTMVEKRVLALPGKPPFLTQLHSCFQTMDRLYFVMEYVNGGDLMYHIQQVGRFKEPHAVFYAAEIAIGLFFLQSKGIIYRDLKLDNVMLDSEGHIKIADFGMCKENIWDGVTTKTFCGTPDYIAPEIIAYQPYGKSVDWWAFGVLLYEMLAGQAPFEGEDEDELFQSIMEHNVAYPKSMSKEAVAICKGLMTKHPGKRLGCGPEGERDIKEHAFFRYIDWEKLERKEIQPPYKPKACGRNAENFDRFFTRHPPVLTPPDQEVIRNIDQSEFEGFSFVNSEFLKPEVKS

Ki: 2.63 nM
SMILES: Cc1ncc(F)c(Nc2n[nH]c3c2CN(C(=O)N2C[C@@H](C)N(C)C[C@@H]2C)C3(C)C)n1 [US11220518, Ex. No. H2]
